Reference: ChEMBL document CHEMBL4507261, “Data for DCP probe A-192621” (2021)

Assays:
[1] = biological target: Inhibitor of nuclear factor kappa-B kinase subunit epsilon (Homo sapiens) (UniProt Q14164); conditions: Compound concentration 1000.0 nM
[2] = biological target: voltage-gated L-type Ca2+ channel (diltiazem site, benzothiazepines) (Rattus norvegicus, UniProt P22002+P27732+Q02485); experiment: Ca2+ channel (L, diltiazem site) (benzothiazepines) Eurofins-Cerep binding assay; design: incubation time 120 min, incubation temperature RT, ligand concentration 15 nM; conditions: rat cerebral cortex (source of protein), probe [3H]diltiazem (15 nM), compound concentration 10 uM, read-out: % Inhibition of Control Specific Binding (Mean n=2)
[3] = biological target: Tyrosine-protein kinase Srms (Homo sapiens) (UniProt Q9H3Y6); conditions: Compound concentration 1000.0 nM
[4] = biological target: Cyclin-dependent kinase-like 1 (Homo sapiens) (UniProt Q00532); conditions: Compound concentration 1000.0 nM
[5] = system: Epidermal growth factor receptor (Homo sapiens), P00533 [UNDEFINED MUTATION]; conditions: Compound concentration 1000.0 nM
[6] = biological target: Angiotensin-converting enzyme (Homo sapiens) (UniProt P12821); experiment: ACE (h) Eurofins-Cerep enzyme and uptake assay; conditions: Compound concentration 10.0 uM
[7] = system: Tyrosine-protein kinase ABL1 (Homo sapiens), P00519 [M351T]; conditions: Compound concentration 1000.0 nM
[8] = biological target: RAC-gamma serine/threonine-protein kinase (Homo sapiens) (UniProt Q9Y243); conditions: Compound concentration 1000.0 nM
[9] = biological target: Ribosomal protein S6 kinase alpha-6 (Homo sapiens) (UniProt Q9UK32); conditions: Compound concentration 1000.0 nM
[10] = biological target: Glutamate NMDA receptor (Rattus norvegicus) (UniProt P35439+Q00959+Q00960+Q00961+Q62645+Q8VHN2+Q9R1M7); experiment: NMDA Eurofins-Cerep binding assay; assay type: protein-complex assay; design: ligand concentration 5 nM; conditions: filed as antagonist, Compound concentration 10.0 uM
[11] = biological target: Sodium-dependent dopamine transporter (Homo sapiens) (UniProt Q01959); experiment: dopamine transporter (h) Eurofins-Cerep binding assay; design: ligand concentration 4 nM; conditions: filed as antagonist, Compound concentration 10.0 uM
[12] = biological target: Serine/threonine-protein kinase WNK1 (Homo sapiens) (UniProt Q9H4A3); conditions: Compound concentration 1000.0 nM
[13] = biological target: T1, 5-hydroxytryptamine receptor 3A (Homo sapiens) (UniProt P46098); experiment: 5-HT3 (h) Eurofins-Cerep binding assay; design: ligand concentration 0.5 nM; conditions: filed as antagonist, Compound concentration 10.0 uM
T1 sequence (whole entry): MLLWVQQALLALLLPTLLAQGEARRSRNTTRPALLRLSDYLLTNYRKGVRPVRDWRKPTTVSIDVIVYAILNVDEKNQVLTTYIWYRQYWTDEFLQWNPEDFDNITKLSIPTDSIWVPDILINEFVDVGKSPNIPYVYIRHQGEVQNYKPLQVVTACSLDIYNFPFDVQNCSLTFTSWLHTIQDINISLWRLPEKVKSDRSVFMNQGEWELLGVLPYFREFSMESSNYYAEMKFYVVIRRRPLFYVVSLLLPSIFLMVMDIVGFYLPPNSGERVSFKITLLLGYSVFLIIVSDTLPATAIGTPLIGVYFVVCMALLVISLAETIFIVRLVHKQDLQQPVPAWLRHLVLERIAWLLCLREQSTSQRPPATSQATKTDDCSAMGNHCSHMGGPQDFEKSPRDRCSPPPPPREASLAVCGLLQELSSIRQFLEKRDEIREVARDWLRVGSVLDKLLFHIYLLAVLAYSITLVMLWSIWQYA

[14] = biological target: T2, Alpha-2A adrenergic receptor (Homo sapiens) (UniProt P08913); experiment: Alpha2A (h) Eurofins-Cerep binding assay; conditions: filed as antagonist, Compound concentration 10.0 uM
T2 sequence (whole entry): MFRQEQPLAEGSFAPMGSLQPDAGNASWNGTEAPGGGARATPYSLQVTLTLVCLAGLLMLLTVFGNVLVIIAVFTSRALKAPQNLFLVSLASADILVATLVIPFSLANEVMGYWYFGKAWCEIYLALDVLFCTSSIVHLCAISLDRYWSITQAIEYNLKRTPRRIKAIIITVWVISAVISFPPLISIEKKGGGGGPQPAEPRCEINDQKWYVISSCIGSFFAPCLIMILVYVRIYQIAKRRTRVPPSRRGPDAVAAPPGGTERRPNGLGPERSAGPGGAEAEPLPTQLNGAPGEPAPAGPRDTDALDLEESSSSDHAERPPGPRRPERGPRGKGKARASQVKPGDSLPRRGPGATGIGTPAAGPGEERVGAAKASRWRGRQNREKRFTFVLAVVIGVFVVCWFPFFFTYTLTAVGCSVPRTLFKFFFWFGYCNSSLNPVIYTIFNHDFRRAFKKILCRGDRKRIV

[15] = biological target: Aurora kinase B (Homo sapiens) (UniProt Q96GD4); conditions: Compound concentration 1000.0 nM
[16] = biological target: cAMP-dependent protein kinase catalytic subunit PRKX (Homo sapiens) (UniProt P51817); conditions: Compound concentration 1000.0 nM
[17] = biological target: MAP kinase-activated protein kinase 2 (Homo sapiens) (UniProt P49137); conditions: Compound concentration 1000.0 nM
[18] = biological target: Mitogen-activated protein kinase 14 (Homo sapiens) (UniProt Q16539); conditions: Compound concentration 1000.0 nM
[19] = biological target: Calcium/calmodulin-dependent protein kinase type II subunit delta (Homo sapiens) (UniProt Q13557); conditions: Compound concentration 1000.0 nM
[20] = biological target: Activin receptor type-1-like (Homo sapiens) (UniProt P37023); conditions: Compound concentration 1000.0 nM
[21] = biological target: RAF proto-oncogene serine/threonine-protein kinase (Homo sapiens) (UniProt P04049); conditions: Compound concentration 1000.0 nM
[22] = biological target: Misshapen-like kinase 1 (Homo sapiens) (UniProt Q8N4C8); conditions: Compound concentration 1000.0 nM
[23] = biological target: Dual specificity protein kinase CLK1 (Homo sapiens) (UniProt P49759); conditions: Compound concentration 1000.0 nM
[24] = biological target: Mitotic checkpoint serine/threonine-protein kinase BUB1 (Homo sapiens) (UniProt O43683); conditions: Compound concentration 1000.0 nM
[25] = biological target: LIM domain kinase 1 (Homo sapiens) (UniProt P53667); conditions: Compound concentration 1000.0 nM
[26] = biological target: Serine/threonine-protein kinase 26 (Homo sapiens) (UniProt Q9P289); conditions: Compound concentration 1000.0 nM
[27] = system: Phosphatidylinositol 4,5-bisphosphate 3-kinase catalytic subunit alpha isoform (Homo sapiens), P42336 [C420R]; conditions: Compound concentration 1000.0 nM
[28] = biological target: Casein kinase I isoform delta (Homo sapiens) (UniProt P48730); conditions: Compound concentration 1000.0 nM
[29] = biological target: Phosphatidylinositol 3-kinase catalytic subunit type 3 (Homo sapiens) (UniProt Q8NEB9); conditions: Compound concentration 1000.0 nM
[30] = biological target: Serine/threonine-protein kinase WNK4 (Homo sapiens) (UniProt Q96J92); conditions: Compound concentration 1000.0 nM

Chain of Mitotic checkpoint serine/threonine-protein kinase BUB1 (Homo sapiens) (O43683 whole entry, looked up, the tested form may be a part): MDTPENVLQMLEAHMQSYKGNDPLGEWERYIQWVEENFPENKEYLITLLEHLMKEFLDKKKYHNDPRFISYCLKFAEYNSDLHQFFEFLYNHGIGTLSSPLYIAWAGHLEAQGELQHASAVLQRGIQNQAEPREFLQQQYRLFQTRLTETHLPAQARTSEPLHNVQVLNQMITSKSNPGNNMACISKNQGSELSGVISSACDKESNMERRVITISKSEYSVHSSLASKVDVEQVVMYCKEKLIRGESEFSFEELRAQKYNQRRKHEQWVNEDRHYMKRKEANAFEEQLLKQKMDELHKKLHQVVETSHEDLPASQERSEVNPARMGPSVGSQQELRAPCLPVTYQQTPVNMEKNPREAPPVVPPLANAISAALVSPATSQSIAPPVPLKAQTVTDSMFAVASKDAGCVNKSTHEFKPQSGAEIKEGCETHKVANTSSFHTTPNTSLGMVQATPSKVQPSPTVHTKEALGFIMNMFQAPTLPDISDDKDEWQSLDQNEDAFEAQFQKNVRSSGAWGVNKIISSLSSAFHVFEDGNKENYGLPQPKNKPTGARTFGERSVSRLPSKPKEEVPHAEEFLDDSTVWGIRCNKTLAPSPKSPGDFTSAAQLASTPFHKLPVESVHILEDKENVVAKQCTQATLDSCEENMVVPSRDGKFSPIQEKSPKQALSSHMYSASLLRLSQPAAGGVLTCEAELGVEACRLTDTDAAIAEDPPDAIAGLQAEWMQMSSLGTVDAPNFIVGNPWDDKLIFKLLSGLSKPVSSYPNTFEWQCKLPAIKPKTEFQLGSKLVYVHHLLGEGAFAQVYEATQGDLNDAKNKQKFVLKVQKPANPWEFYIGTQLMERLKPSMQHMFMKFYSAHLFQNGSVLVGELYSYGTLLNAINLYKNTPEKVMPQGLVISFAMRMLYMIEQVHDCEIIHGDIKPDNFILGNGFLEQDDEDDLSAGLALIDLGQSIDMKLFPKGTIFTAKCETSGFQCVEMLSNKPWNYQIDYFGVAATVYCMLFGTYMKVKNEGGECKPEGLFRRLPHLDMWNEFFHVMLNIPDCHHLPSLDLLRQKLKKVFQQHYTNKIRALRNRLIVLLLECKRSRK
Chain of Epidermal growth factor receptor (Homo sapiens), P00533 [UNDEFINED MUTATION] (P00533 whole entry, looked up, stated change not applied): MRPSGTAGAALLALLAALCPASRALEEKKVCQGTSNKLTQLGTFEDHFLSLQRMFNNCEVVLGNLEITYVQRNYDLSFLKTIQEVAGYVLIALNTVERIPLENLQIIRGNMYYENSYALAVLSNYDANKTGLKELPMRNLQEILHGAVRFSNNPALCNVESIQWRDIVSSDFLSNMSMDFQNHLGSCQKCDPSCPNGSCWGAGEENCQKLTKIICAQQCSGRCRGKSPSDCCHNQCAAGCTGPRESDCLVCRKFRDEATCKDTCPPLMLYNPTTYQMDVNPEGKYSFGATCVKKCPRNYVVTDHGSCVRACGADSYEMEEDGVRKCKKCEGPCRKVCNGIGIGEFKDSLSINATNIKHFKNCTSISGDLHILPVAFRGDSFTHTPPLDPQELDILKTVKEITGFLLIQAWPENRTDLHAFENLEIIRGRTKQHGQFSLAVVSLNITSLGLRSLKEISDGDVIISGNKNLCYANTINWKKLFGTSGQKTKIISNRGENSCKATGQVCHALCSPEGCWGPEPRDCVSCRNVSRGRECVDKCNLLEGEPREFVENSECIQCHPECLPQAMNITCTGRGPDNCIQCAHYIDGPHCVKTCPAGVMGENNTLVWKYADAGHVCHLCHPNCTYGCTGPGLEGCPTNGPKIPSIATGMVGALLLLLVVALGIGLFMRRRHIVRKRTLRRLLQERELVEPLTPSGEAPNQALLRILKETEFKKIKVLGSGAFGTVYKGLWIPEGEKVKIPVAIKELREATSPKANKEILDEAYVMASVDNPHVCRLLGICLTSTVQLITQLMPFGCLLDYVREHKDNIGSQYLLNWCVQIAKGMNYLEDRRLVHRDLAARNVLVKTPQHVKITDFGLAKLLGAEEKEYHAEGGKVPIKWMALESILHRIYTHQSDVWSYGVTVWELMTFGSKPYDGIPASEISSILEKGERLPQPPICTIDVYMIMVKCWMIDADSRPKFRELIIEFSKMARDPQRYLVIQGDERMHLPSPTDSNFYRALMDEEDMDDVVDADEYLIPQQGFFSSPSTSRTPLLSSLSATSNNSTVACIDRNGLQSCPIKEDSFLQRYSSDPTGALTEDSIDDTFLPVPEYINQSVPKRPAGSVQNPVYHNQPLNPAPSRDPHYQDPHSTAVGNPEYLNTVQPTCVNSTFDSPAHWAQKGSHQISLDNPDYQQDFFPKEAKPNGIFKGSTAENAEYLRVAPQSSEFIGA
Chain of Phosphatidylinositol 4,5-bisphosphate 3-kinase catalytic subunit alpha isoform (Homo sapiens), P42336 [C420R] (P42336 whole entry C420R, canonical isoform): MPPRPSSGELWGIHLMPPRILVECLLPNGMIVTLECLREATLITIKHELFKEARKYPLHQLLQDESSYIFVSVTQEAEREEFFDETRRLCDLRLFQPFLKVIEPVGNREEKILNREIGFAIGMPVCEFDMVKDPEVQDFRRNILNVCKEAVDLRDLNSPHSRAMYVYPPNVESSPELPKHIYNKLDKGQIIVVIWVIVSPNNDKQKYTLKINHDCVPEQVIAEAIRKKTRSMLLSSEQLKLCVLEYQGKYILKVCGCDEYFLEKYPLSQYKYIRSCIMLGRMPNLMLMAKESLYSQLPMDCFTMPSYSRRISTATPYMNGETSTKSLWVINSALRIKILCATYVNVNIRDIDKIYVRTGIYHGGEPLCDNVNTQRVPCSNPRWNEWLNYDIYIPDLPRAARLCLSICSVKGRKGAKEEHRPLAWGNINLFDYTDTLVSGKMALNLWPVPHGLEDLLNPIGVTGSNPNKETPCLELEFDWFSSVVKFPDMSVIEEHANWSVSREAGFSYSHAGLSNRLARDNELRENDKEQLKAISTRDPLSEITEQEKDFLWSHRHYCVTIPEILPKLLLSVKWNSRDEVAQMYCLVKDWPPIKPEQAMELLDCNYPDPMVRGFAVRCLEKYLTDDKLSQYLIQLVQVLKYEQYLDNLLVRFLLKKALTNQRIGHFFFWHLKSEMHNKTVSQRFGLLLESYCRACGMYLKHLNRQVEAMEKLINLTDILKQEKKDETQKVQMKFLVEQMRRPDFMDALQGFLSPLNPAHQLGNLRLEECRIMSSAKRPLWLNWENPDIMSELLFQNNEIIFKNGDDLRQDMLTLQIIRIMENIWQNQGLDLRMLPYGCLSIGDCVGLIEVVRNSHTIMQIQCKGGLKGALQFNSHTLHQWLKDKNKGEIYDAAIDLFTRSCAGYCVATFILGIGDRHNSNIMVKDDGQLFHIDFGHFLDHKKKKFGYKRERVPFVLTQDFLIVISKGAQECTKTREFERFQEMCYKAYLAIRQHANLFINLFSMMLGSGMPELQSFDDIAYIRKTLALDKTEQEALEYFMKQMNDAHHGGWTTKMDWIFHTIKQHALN
Chain of MAP kinase-activated protein kinase 2 (Homo sapiens) (P49137 whole entry, looked up): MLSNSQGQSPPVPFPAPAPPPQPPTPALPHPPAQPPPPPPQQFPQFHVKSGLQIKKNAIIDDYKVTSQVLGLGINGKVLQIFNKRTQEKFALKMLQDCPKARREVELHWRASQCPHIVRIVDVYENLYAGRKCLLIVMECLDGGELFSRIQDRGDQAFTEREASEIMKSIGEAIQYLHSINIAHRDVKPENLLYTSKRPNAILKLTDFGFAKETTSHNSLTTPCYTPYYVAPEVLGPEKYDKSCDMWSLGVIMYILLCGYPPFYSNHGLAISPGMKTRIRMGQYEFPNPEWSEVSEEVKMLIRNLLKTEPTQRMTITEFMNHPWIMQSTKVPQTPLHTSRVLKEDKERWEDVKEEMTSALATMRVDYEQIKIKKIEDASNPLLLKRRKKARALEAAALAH
Chain of Activin receptor type-1-like (Homo sapiens) (P37023 whole entry): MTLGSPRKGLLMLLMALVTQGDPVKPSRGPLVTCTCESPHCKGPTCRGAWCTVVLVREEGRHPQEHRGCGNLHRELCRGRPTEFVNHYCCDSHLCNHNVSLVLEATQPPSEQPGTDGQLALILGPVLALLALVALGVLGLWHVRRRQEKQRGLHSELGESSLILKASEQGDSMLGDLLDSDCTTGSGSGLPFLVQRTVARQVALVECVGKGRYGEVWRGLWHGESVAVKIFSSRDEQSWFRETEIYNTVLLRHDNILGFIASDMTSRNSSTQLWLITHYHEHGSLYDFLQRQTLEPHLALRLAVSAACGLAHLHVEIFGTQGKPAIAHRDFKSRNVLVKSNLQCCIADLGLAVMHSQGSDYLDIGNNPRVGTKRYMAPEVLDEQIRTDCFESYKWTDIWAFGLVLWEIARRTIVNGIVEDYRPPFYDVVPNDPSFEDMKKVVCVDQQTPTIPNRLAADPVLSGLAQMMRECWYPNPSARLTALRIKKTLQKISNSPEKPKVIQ
Chain of Calcium/calmodulin-dependent protein kinase type II subunit delta (Homo sapiens) (Q13557 whole entry): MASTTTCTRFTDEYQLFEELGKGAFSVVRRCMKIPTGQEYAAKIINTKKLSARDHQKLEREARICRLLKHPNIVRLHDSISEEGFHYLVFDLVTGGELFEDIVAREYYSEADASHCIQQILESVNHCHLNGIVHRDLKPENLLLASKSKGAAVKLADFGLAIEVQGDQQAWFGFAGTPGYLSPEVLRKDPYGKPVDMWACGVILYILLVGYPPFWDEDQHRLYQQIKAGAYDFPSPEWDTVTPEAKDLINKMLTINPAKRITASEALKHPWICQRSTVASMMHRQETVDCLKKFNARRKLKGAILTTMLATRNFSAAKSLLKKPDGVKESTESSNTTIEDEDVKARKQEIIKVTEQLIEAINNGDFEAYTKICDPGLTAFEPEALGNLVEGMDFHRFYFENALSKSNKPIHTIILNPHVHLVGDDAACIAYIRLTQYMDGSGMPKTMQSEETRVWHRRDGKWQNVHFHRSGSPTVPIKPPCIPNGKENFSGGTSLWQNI

SMILES | residual activity [1] [%] | inhibition at 120 min, 10 µM [2] [%] | residual activity [3] [%] | residual activity [4] [%] | residual activity [5] [%] | % Inhibition of Control Values (Mean n=2) [6] [%] | residual activity [7] [%] | residual activity [8] [%] | residual activity [9] [%] | % Inhibition of Control Specific Binding (Mean n=2) [10] [%] | % Inhibition of Control Specific Binding (Mean n=2) [11] [%] | residual activity [12] [%] | % Inhibition of Control Specific Binding (Mean n=2) [13] [%] | residual activity [15] [%] | residual activity [16] [%] | residual activity [17] [%] | residual activity [18] [%] | residual activity [19] [%] | residual activity [20] [%] | residual activity [21] [%] | further results
CCCOc1ccc([C@H]2[C@H](C(=O)O)[C@@H](c3ccc4c(c3)OCO4)CN2CC(=O)Nc2c(CC)cccc2CC)cc1 [A-192621] | 68 | 4.2 | 63 | 66 | 81 | -12.6 | 69 | 82 | 77 | 3.3 | 23.6 | 89 | -10.7 | 72 | 91 | 100 | 99 | 93 | 99 | 98 | % Inhibition of Control Specific Binding [14]: -2.4%; residual activity [22]: 68%; residual activity [23]: 87%; residual activity [24]: 98%; residual activity [25]: 100%; residual activity [26]: 74%; residual activity [27]: 95%; residual activity [28]: 80%; residual activity [29]: 78%; residual activity [30]: 81%
CCCOc1ccc([C@@H]2[C@@H](C(=O)O)[C@H](c3ccc4c(c3)OCO4)CN2CC(=O)Nc2c(CC)cccc2CC)cc1 [A-1806262] | 85 | 15.4 | 90 | 77 | 58 | -13.7 | 80 | 100 | 76 | 6.6 | 18.3 | 91 | -7.1 | 77 | 89 | 100 | 100 | 88 | 100 | 100 | % Inhibition of Control Specific Binding (Mean n=2) [14]: -7.1%; residual activity [22]: 78%; residual activity [23]: 93%; residual activity [24]: 92%; residual activity [25]: 90%; residual activity [26]: 81%; residual activity [27]: 100%; residual activity [28]: 83%; residual activity [29]: 88%; residual activity [30]: 80%
